Patent US20180228703A1, “Improved Hyaluronan and Modified-Hyaluronan in Biomedical Applications” (CHL Industries, LLC, priority 2015, published 2018)

Experiments:
[1] = Viscosity of HA solution on storage at 25, 40 and 50° C. (cone-plate viscometer); type: physicochemical
Protocol: Viscosity measurements are made of vials of sterile, injectable grade, high molecular weight 1% sodium hyaluronate solution (Hycoat® Sterile Wound Management Solution; Hyaluronate Sodium, Solution 20 mg/2 mL; avg. molecular weight 1.0-1.3 million Daltons; supplied by Hymed Group, Bethlehem, Pa.) containing Chlorophyllin Copper Complex Sodium at varying concentrations as summarized in the table below. Preferably, dissolved and atmospheric oxygen is purged from the HA solution by displacing the headspace in the vial with Nitrogen or Argon.
Sodium copper chlorophyllin complex (disodium copper isochlorin e4 minimum content of 25% based on dry weight of complex; supplied by Frontier Scientific, Logan, Utah) is added to the 1% HA test solutions (i.e., 2 mL Hycoat® described above) as follows: 1 gram of CHLcu is added to 99 grams of distilled water, heated to 50° C., mixed for 30 minutes with a magnetic stirrer, and then cooled to room temperature. The specified concentration of CHLCu solution is drawn into a syringe through a 0.45u syringe filter and added to the sterile vial of 1% HA solution under a laminar flow hood. For example, in order to prepare a 1% HA solution containing 100 ppm of CHLcu in the final HA solution 20.5 microliters (0.0205 mL) of the 1% CHLCu solution is injected into the vial of 2 mL of sterile HA solution.
Each of the 2 mL test samples (with and without CHLcu) are stored at 25° C., 40° C., and 50° C. for up to eight weeks. Viscosity measurements are taken at baseline and at 1, 2, 4, 6 and 8 weeks after storage at the three temperatures.
0.5 mL of the test sample is then withdrawn from each vial, causing a temporary shear in the sample viscosity.
All samples (1% HA+CHLCu) are equilibrated prior to viscosity measurement. […]
Each withdrawn sample is allowed to further equilibrate for five additional minutes before taking viscosity measurements. Viscosity is preferably measured at 2 rpm with a cone-plate viscometer (e.g., Brookfield LVD-II Pro Cone/Plate viscometer; CPE-51 spindle from Brookfield Engineering Laboratories, Inc. Middleboro, Mass.).

[2] = test system: Vitrase injectable sterile hyaluronidase; test: Anti-hyaluronidase activity: viscosity of 1% HA before and after addition of Vitrase; type: biochemical, Ovine
Protocol: In order to assess the anti-hyaluronidase activity of the CHLcu stabilizing agent, 40 units (0.2 mL) of Vitrase® injectable sterile hyaluronidase solution (Ovine, 200 USP Units/mL) is added to each of four 1% HA samples that have been stored at 25° C. for six weeks with (a) no CHLCu; (b) 50 ppm CHLCu; (c) 100 ppm CHLCu; and (d) 250 ppm CHLCu). Anti-hyaluronidase activity is measured by comparing the viscosity of the test samples before and after addition of Vitrase®.
A product containing 1% HA (Hycoat® Sterile Wound Management Solution; Hyaluronate Sodium, Solution 20 mg/2 mL; average molecular weight 1.0-1.3 million Daltons) and 100 mcg/mL CHLCu was combined with 40 units (0.2 mL) of Vitrase® injectable sterile hyaluronidase solution (Ovine, 200 USP Units/mL) and stored at 25° C. for 30 minutes. The viscosity of the combined solution of sodium HA, CHLCu, and Vitrase® composition was seen to drop from 450.6 cps to 161.8 cps, or 35.9% of initial viscosity.
By way of comparison, the viscosity of the same 1% HA solution without CHLCu was measured, and then exposed to 40 units of the same Vitrase. After 30 minutes of Vitrase® contact, the 1% HA solution underwent a viscosity change from 516.2 cps to 43.69 cps or only 8.5% of the initial HA viscosity.

COL15A1 = test: Collagen gene expression in adult human dermal fibroblasts, PCR array; type: cell-based; settings: HDF, 24 hours
Protocol: (§1) Using adult human dermal fibroblasts (Cell Applications, San Diego, Calif.) (“HDF”), the effectiveness of three chlorophyllin materials—Isochlorin E4 Disodium (“E4”); Sodium Copper Chlorophyllin C3999 (“C3999”); and Chlorophyllin Sodium Copper Salt (“CSCS”)—are assessed for the ability to positively effect the differential expression of at least one of the following three collagen genes—COL15A1; COL1A1; and COL5A1. After cell viability tests, the effect of 2 μg/ml E4, 10 μg/ml CSCS, and 10 μg/ml C3999 on adult human dermal fibroblasts (100,000 cells/well) on gene expression were evaluated using PCR arrays.
(§2) HDF cells were incubated for 24 hours in a 12-well plate at a concentration of 100,000 cells/well in Dulbecco's Modified Eagle Medium (DMEM) with 5% Fetal Bovine Serum (FBS). The three test materials were added to the wells, incubated for 24 hours. […] RNA was extracted and purified with NucleoSpin RNA II kit from Machery-Nagel (Bethlehem, Pa.). Purified total RNA was analyzed at 230 nm, 260 nm and 280 nm with Agilent HP-8452A diode array spectrophotometer. The concentration of RNA was equalized across the samples and the expression of genes of interest was measured by real-time quantitative PCR with BioRad iCycler iQ Detection System using Human Extracellular Matrix & Adhesion Molecules PCR array PAHS-13ZA from Qiagen (formerly SA Biosciences, Frederick, Md.). Reactions were performed with 1st strand synthesis kit, SYBR Green master mix and PCR setup parameters from Qiagen. Results were normalized to housekeeping genes with the RT2 Profiler PCR Array Data Analysis version 3.5 software
(§3) Genes were considered differentially expressed if the level of expression was detected in less than 30 cycles, and modulation was 1.5 fold or higher.

COL1A1 = test: as above; type: cell-based; settings: HDF, 24 hours
Protocol: as §1, §2, §3

COL5A1 = test: as above; type: cell-based; settings: HDF, 24 hours
Protocol: as §1, §2, §3

[3] = test system: non-soluble type I collagen; test: Non-soluble type I collagen production by HDF, direct ELISA; type: cell-based, human; settings: for % CTRL (COL-I): 4 days, vs water; for % CTRL (Cell # Standardized): non-soluble collagen I standardized to cell numbers; for Cell # Standardized: repeat testing, type I collagen deposition, H2O = 100
Protocol: Adult human dermal fibroblasts (Cell Applications, San Diego, Calif.) were plated in DMEM without phenyl red supplemented with 5% FBS and 1% penicillin/streptomycin (PS) at a concentration of 8,000 cells/well. Test materials, which were stored at 4° C. until dissolved at 20 mg/ml in ddH2O, were added the next day on attached exponentially-growing cells.
Cells were then fixed with 2.5% trichloroacetic acid (TCA) at 4° C., dried overnight, and tested for non-soluble type I collagen, using direct ELISA.
(§4) Cells proliferation was quantified by staining cytoskeletons with sulforhodamine B according to the colorimetric method of Voigt, “Sulforhodamine B assay and chemosensitivity,” Methods Mol. Med. Vol. 110, pp. 39-48 (2005). Statistical significance was assessed with two-tailed paired Student test. Deviations of >15% as compared to the negative water control with p values below 0.05 were considered statistically significant.

[4] = test system: adult human dermal fibroblasts; test: Cell proliferation, sulforhodamine B staining; type: cell-based; settings: 4 days, vs water
Protocol: Adult human dermal fibroblasts (Cell Applications, San Diego, Calif.) were plated in DMEM without phenyl red supplemented with 5% FBS and 1% penicillin/streptomycin (PS) at a concentration of 8,000 cells/well. Test materials, which were stored at 4° C. until dissolved at 20 mg/ml in ddH2O, were added the next day on attached exponentially-growing cells. Negative and positive controls were, respectively, type I sterile water and L-Ascorbic acid 2-phosphate sesquimagnesium salt (“MAP”) (Sigma-Aldrich).
as §4

HDF = test: Long term HDF viability, MTT assay; type: cell-based, human; settings: long-term incubation, 1 μg/mL
Protocol: The effect of long-term incubation of HDF with E4 is assessed by MTT, a colorimetric assay for assessing cell metabolic activity.

[5] = 1% HA (Hycoat) + 100 mcg/mL CHLCu, 40 units Vitrase, 25° C., 30 minutes

Row | Substance | COL15A1 expression (modulation) (COL15A1; 10 μg/ml) [fold] | COL1A1 expression (modulation) (COL1A1; 10 μg/ml) [fold] | COL5A1 expression (modulation) (COL5A1; 10 μg/ml) [fold] | % CTRL (COL-I) ([3]; 5 μg/mL) [% CTRL] | % CTRL (COL-I) ([3]; 10 μg/mL) [% CTRL] | % CTRL (COL-I) ([3]; 20 μg/mL) [% CTRL] | % CTRL (Cell # Standardized) ([3]; 5 μg/mL) [% CTRL] | % CTRL (Cell # Standardized) ([3]; 10 μg/mL) [% CTRL] | % CTRL (Cell # Standardized) ([3]; 20 μg/mL) [% CTRL] | Cell # Standardized ([3]; 0.25 ug/ml) | Cell # Standardized ([3]; 1 μg/ml) | Cell # Standardized ([3]; 2 μg/ml) | Cell # Standardized ([3]; 5 μg/ml) | % CTRL (Cell #) ([4]; 5 μg/mL) [% CTRL] | % CTRL (Cell #) ([4]; 10 μg/mL) [% CTRL] | % CTRL (Cell #) ([4]; 20 μg/mL) [% CTRL] | further results
1 | Chlorophyllin Copper Complex Sodium [CHLcu] | – | – | – | – | – | – | – | – | – | – | – | – | – | – | – | – | viscosity change compared with samples not containing CHLCu ([1]; 1% HA, 25, 40, 50° C., up to eight weeks): less of a viscosity change; viscosity deviation from baseline after 8 weeks of storage ([1]; HA product stored with CHLcu about 50 to about 250 ppm, 40° C.): ≤ 5%; viscosity increase ([1]; HA product stored with CHLcu about 50 to about 250 ppm, 40° C., about 8 weeks): up to 25%; viscosity before Vitrase ([2]; 1% HA (Hycoat) + 100 mcg/mL CHLCu): 450.6 cps; % of initial viscosity after Vitrase [2, 5]: 35.9%; viscosity after Vitrase [2, 5]: 161.8 cps; loss of viscosity when challenged with hyaluronidase ([2]; product containing HA (or modified HA) and CHLCu): reduced loss of viscosity
2 | Chlorophyllin Sodium Copper Salt [CSCS] | 1.2 | 1.5 | 1.7 | 95 | 85 | 84 | 99 | 96 | 94 | 97 | 96 | 114 | 110 | 95 | 87 | 88 | –
3 | Isochlorin E4 Disodium | – | – | – | 94 | 90 | – | 115 | 111 | – | 88 | 89 | 113 | 101 | 81 | 80 | – | COL15A1 expression (modulation) (COL15A1; 2 μg/ml): 1.2 fold; COL1A1 expression (modulation) (COL1A1; 2 μg/ml): 1.2 fold; COL5A1 expression (modulation) (COL5A1; 2 μg/ml): 1.5 fold; HDF cell metabolic activity (MTT) (HDF): unaffected; % CTRL (COL-I) ([3]; 2 μg/mL): 120 % CTRL; % CTRL (Cell # Standardized) ([3]; 2 μg/mL): 133 % CTRL; % CTRL (Cell #) ([4]; 2 μg/mL): 89 % CTRL
4 | L-Ascorbic acid 2-phosphate sesquimagnesium salt [MAP, reference compound] | – | – | – | – | – | – | – | – | – | – | – | – | – | – | – | – | % CTRL (Cell #) ([4]; 50 μg/mL): 111 % CTRL; % CTRL (Cell #) ([4]; 100 μg/mL): 100 % CTRL
5 | Sodium Copper Chlorophyllin C3999 | 1.5 | 1.2 | 1.3 | 97 | 110 | 121 | 101 | 118 | 145 | – | – | – | – | 95 | 92 | 83 | –
